Assay results: patent US8680282B2, “Cyclic inhibitors of carnitine palmitoyltransferase and treating cancer” (University Health Network, priority 2007, dated 2014)

Experiments:
[1] = molecular target: T1, human CPT1A (Homo sapiens, UniProt P50416); assay: Human CPT1A LC/MS assay; assay type: biochemical; conditions: human CPT1A LC/MS assay, dose response format
T1 construct: made in house; host or cells: Saccharomyces cerevisiae (pESC-trp) or cultured mammalian cells (pCDNA3.1); mitochondrial extract
T1 sequence (P50416 1-773): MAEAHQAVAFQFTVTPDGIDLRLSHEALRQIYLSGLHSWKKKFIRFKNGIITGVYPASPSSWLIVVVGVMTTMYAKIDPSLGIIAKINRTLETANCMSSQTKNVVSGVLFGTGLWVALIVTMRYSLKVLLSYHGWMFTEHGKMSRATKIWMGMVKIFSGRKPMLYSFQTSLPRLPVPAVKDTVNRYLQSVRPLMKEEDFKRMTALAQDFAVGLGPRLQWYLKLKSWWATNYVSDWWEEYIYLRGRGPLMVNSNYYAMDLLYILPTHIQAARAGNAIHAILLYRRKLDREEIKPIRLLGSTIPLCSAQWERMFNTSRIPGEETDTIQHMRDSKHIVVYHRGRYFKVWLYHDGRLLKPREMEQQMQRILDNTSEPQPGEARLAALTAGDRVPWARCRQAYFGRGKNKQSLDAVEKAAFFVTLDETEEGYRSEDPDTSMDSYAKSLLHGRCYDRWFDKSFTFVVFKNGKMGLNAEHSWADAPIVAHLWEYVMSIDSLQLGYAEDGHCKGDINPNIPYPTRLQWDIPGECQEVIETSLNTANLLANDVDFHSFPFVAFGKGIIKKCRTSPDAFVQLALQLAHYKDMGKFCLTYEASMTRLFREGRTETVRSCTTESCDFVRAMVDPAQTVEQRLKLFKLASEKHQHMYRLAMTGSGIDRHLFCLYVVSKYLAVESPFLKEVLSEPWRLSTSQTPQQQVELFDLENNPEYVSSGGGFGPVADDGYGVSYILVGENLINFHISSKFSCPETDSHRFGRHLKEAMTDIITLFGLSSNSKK
Description: Nucleotide sequences encoding human CPT1 enzymes were individually cloned into the yeast expression vector pESC-trp at the Cla1 (5′ terminus) and Pac1 (3′ terminus) restriction sites by PCR amplification of the open reading frame using oligonucleotide primers designed to encode the wild-type CPT1 protein sequence. Standard molecular biology techniques were used to transform and express the CPT1 proteins in the yeast Saccharomyces cerevisiae. The yeast cells were lysed by enzymatic degradation of the cell wall by Zymolase, and the mitochondria were isolated by standard biochemical techniques. The integrity of the isolated mitochondria was monitored by determining the activity of succinate dehydrogenase in the mitochondrial preparations. The mitochondrial extracts were stored at −80° C. in buffer containing 10 mM HEPES pH 7.4 and 250 mM sucrose.
Human CPT1 (A, B, C) genes were additionally cloned into the pCDNA3.1 vector individually for expression in cultured mammalian cells. Cells expressing the exogenous CPT1A were identified and grown under standard conditions. Mammalian cells were harvested, and mitochondrial extracts prepared using standard biochemical methods. The mitochondrial extracts were stored at −80° C. in buffer containing 10 mM HEPES pH 7.4 and 250 mM sucrose.
Assays were performed in 96-well plate format. Each 100 μL reaction contained 40 mM KCl, 50 mM TrisHCl pH 7.5, and 250 mM mannitol (Assay Buffer), and 1.6 μg protein of an extract, 20 μM palmitoyl-CoA, 50 μM L-carnitine, and 10 ug/mL BSA. Reactions were incubated at room temperature and stopped after 10 minutes by extraction with 200 μL of water saturated n-butanol containing myristoyl carnitine (500 nM) as an internal standard. The samples were thoroughly mixed, and the phases separated by centrifugation. Samples were prepared for analysis with a 10 fold dilution of the n-butanol phase containing the reaction product palmitoyl carnitine into a 50:50 (acetonitrile:water) solvent for analysis. 5 μL of prepared sample was separated on a Phenomenex Jupiter 5μ C4 reverse-phase column using an Agilent 1100 HPLC with a gradient from 50% acetonitrile (0.5% acetic acid) to 100% acetonitrile and quantified by detection with a Bruker Esquire 3000plus mass spectrometer. The abundance of the palmitoyl carnitine product was determined relative to the internal standard and the actual quantity of palmitoyl carnitine can be determined from a standard curve prepared using the n-butanol solution containing the internal standard.
Compounds were evaluated in two formats, a screening format, and a dose response format. The screening format was performed by adding 25 μL compound in 20% DMSO and Assay Buffer to 25 μL of extract containing […] and Assay Buffer, followed by a 10 minute incubation at room temperature. 50 μL of 40 μM palmitoyl-CoA in Assay Buffer was added to the reaction mixture, mixed and incubated for 10 minutes at room temperature. A negative control for activity was also performed where the carnitine was omitted from the reaction. A positive control for activity was also performed by omitting compound from the solution containing 20% DMSO and Assay Buffer. The reaction mixture was extracted and analyzed as described above. The inhibition by compound was determined by comparing the control relative activity to the relative activity observed in wells containing the compound. Relative activity was determined by subtracting the relative intensity (area palmitoyl carnitine/area myristoyl carnitine) observed in the negative control from the relative intensity observed in the experimental well, and dividing by the relative activity observed in the positive control.
[formula] Compound characterization by dose response format was performed using the above described assay conditions and a 16 point compound titration in 2 fold compound dilution steps. The DMSO concentration was kept constant at 20% (v/v) for all compound concentrations.

[2] = tested on: cancer cell lines from breast, lung, colon, brain, prostate and ovarian cancer; assay: Cancer cell growth inhibition, SRB assay, cell line panel; assay type: cell-based, human; conditions: cell lines of Tables 2 and 3; for S11: at 10 μM, all lines other than MDA-231, A549, H460, HCT-8
Experimental: (§1) Human cancer cells (MCF-7, H358, H460, HCT116 p53^+/+, HCT116 p53^−/−, A172, PC-3, DU-145 and SW626) were maintained in DMEM medium containing 10% Fetal Bovine Serum (FBS) (Invitrogen, Burlington, ON, Canada) and normal cells HMEC, 184A1, NHBE and PrEC were cultured in MEGM, MEGM plus transferring and cholera toxin, BEGM and PrEGM supplemented with various growth factors (Cambrex, Charles city, Iowa, USA), respectively.
Compounds of Examples S1 to S30, and 4-(carboxymethyl)-4-(6-(3-hexyloxy)phenoxy)hexanoamido)-1,1-dimethylpiperidinium 2,2,2-trifluoroactate (“Compound A”) were tested in this example. Each of the tested compounds was dissolved in DMSO and further diluted in cell culture medium for the experiments performed. […] Cell viability was assessed by Sulforhodamine B (SRB) assay at Day 6.
Sulforhodamine B (SRB) (Sigma, Oakville, ON, Canada) is a water-soluble dye that binds to the basic amino acids of the cellular proteins. […] Absorbance was read at 570 nm on a spectrophotometer. […] Growth inhibition (%) was determined as percentage of cells remaining compared to the DMSO-treated cells as control.
All of the compounds shown in Tables 2 and 3 had activity against at least one cell line (“NT” means not tested; and “NE” means no activity at 10 micromolar—activity at higher concentrations was not measured).

[3] = tested on: H358; assay: Cancer cell growth inhibition, SRB assay; assay type: cell-based, human; set-up: Percentage of Growth Inhibition: unit not given here; conditions: H358; at 10 μM; SRB at Day 6; NE = no activity at 10 micromolar
Experimental: as §1
(§2) Compounds of Examples S1 to S30, and 4-(carboxymethyl)-4-(6-(3-hexyloxy)phenoxy)hexanoamido)-1,1-dimethylpiperidinium 2,2,2-trifluoroactate (“Compound A”) were tested in this example. Each of the tested compounds was dissolved in DMSO and further diluted in cell culture medium for the experiments performed. Cells were seeded into 96-well plates with 1,500-5,000 cells/well according to cell growth rate. After 24 h, DMEM medium containing 10% FBS were changed to DMEM containing 3% FBS for cancer cells. The compound was added into the cell culture at the indicated concentrations, and the final concentration of DMSO was adjusted to a final concentration of 0.1%. Cell viability was assessed by Sulforhodamine B (SRB) assay at Day 6.
(§3) Sulforhodamine B (SRB) (Sigma, Oakville, ON, Canada) is a water-soluble dye that binds to the basic amino acids of the cellular proteins. Thus, colorimetric measurement of the bound dye provides an estimate of the total protein mass that is related to the cell number. The cells were fixed in situ by gently aspirating off the culture media and adding 50 ul of cold 10% Tri-chloroacetic Acid (TCA) per well and incubated at 4° C. for 30-60 min. The plates were washed five times with water and allowed to air dry for 5 min. 50 ul of 0.4% (w/v) SRB dissolved in 1% (v/v) acetic acid were added into each well, plates were then incubated at RT for 30 min for staining, washed four times with 1% acetic acid to remove any unbound dye and then allowed to air dry for 5 min. Stain was solubilized with 100 ul of 10 mM Tris pH 10.5 per well. Absorbance was read at 570 nm on a spectrophotometer. GI50 (compound concentration required for 50% of growth inhibition) was calculated using GraphPad Prism 4.0 software (GraphPad Software, Inc., San Diego, Calif., USA). Growth inhibition (%) was determined as percentage of cells remaining compared to the DMSO-treated cells as control.

[4] = tested on: A172; assay: Cancer cell growth inhibition, SRB assay; assay type: cell-based, human; conditions: A172; at 10 μM; SRB at Day 6; NE = no activity at 10 micromolar
Experimental: as §1, §2, §3

[5] = tested on: PC-3; assay: Cancer cell growth inhibition, SRB assay; assay type: cell-based, human; conditions: PC-3; at 10 μM; SRB at Day 6; NE = no activity at 10 micromolar
Experimental: as §1, §2, §3

[6] = tested on: MCF-7; assay: Cancer cell growth inhibition, SRB assay; assay type: cell-based, human; set-up: Percentage of Growth Inhibition: scale not given here; conditions: MCF-7; at 10 μM; SRB at Day 6; NE = no activity at 10 micromolar
Experimental: as §1, §2, §3

[7] = tested on: SW626; assay: Cancer cell growth inhibition, SRB assay; assay type: cell-based, human; set-up: Percentage of Growth Inhibition: scale not given here; conditions: SW626; at 10 μM; SRB at Day 6; NE = no activity at 10 micromolar
Experimental: as §1, §2, §3

[8] = tested on: HCT-8; assay: Cancer cell growth inhibition, SRB assay; assay type: cell-based, human; conditions: at 10 μM, SRB at Day 6

SMILES | IC50 [1] | activity against cancer cell lines [2] | Percentage of Growth Inhibition [3] | Percentage of Growth Inhibition [4] | Percentage of Growth Inhibition [5] | Percentage of Growth Inhibition [6] | Percentage of Growth Inhibition [7] | Percentage of Growth Inhibition [8]
CCCCCc1ccc(S(=O)(=O)NC2(CC(=O)O)CCCN(C)C2)cc1 (stereo not drawn) [Example S11, 3-(carboxymethyl)-1-methyl-3-(4-pentylphenylsulfonamido)piperidinium 2,2,2-trifluoroacetate] | 1 to 10 µM | did not exihibit activity at 10 μM |  |  |  |  |  | 
CCCCCCCCc1ccc(NS(=O)(=O)NC2(CC(=O)O)CNC2)cc1.O=C(O)C(F)(F)F [Example S28, 3-(carboxymethyl)-3-(N-(4-octylphenyl)sulfamoylamino)azetidinium 2,2,2-trifluoroacetate] | > 2500 µM |  | 0.06989 | 0.3077% | 0.6043% | 0.04154% | 0.04727% | 0.06675%
